# In ChEMBL document CHEMBL1949522, “Acremostrictin, a highly oxygenated metabolite from the marine fungus Acremonium strictum” (J Nat Prod, 2011):
# Calls of active or inactive are those of the source. No cut-off for these calls is given here.
# Assays:
# Micrococcus luteus = experiment: Antibacterial activity against Micrococcus luteus IFO 12708 after 24 hrs; type: functional; settings: IFO 12708, 24 h
# Proteus vulgaris = experiment: Antibacterial activity against Proteus vulgaris ATCC 3851 after 24 hrs; type: functional; settings: ATCC 3851, 24 h
# Salmonella typhimurium = experiment: Antibacterial activity against Salmonella Typhimurium ATCC 14028 after 24 hrs; type: functional, Salmonella enterica subsp. enterica serovar Typhimurium; settings: Salmonella enterica, ATCC 14028, 24 h
# Escherichia coli = experiment: Antibacterial activity against Escherichia coli ATCC 35270 after 24 hrs; type: functional; settings: ATCC 35270, 24 h
# K562 = experiment: Anticancer activity against human K562 cells; type: functional, cell-based
# Bacillus subtilis = experiment: Antibacterial activity against Bacillus subtilis ATCC 6633 after 24 hrs; type: functional; settings: ATCC 6633, 24 h
# [1] = tested on: Radical scavenging activity; experiment: Antioxidant activity assessed as DPPH radical-scavenging activity after 30 mins by spectrophotometric analysis; type: functional
# HaCaT = experiment: Antioxidant activity in human HaCaT cells assessed as inhibition of H2O2-induced cell death pretreated for 1 hr prior to H2O2 challenge measured after 24 hrs by spectrophotometric analysis; type: functional, cell-based
# Staphylococcus aureus = experiment: Antibacterial activity against Staphylococcus aureus ATCC 6538p after 24 hrs; type: functional
smiles,measurement,setting,value
CC1=C[C@@H]2C[C@]3(C)OC(=O)[C@@](O)([C@H]3C)[C@]2(O)C1=O (relative stereo),MIC,Micrococcus luteus,50 µg/mL
same,MIC,Proteus vulgaris,12.5 µg/mL
same,MIC,Salmonella typhimurium,50 µg/mL
same,MIC,Escherichia coli,> 100 µg/mL
same,Activity,K562,inactive
same,MIC,Bacillus subtilis,> 100 µg/mL
same,Activity,[1],Dose-dependent effect
same,IC50,[1],2.1 mM
same,inhibition,HaCaT,Dose-dependent effect
same,MIC,Staphylococcus aureus,> 100 µg/mL
